Experimental data reported in US9878996B2, “2-imidazolyl-pyrimidine scaffolds as potent and selective inhibitors of neuronal nitric oxide synthase” (Northwestern University, priority 2014, dated 2018).
“Also recorded” adds a separate entry of the source. Read-outs that look alike come from different tables or passages of the source. Blank lines part the entries; values can stand above or below the compound they belong to.

How the values were obtained:
rat nNOS = rat nNOS (Rattus norvegicus (Rat), UniProt P29476)
eNOS [1] = molecular target: eNOS (Bos taurus, UniProt P29473); conditions: read-out: Ki eNOS; Ki from IC50 by Cheng-Prusoff
eNOS [2] = conditions: for Ratios n/e: selectivity nNOS over eNOS
iNOS [3] = molecular target: T1, iNOS (Mus musculus (Mouse), UniProt P29477); conditions: for Ki: read-out: Ki iNOS, Ki from IC50 by Cheng-Prusoff; for Ratios n/i: selectivity nNOS over iNOS
caco-2 = experiment: Caco-2 assay; format: in vitro ADME
[4] = system: panel of other CNS targets, including the muscarinic receptors; experiment: Primary binding assays on a panel of other CNS targets (NIMH PDSP); conditions: 10 μM concentration
human nNOS = human nNOS (Homo sapiens (Human), UniProt P29475); conditions: for Ki: read-out: Ki hnNOS, Ki from IC50 by Cheng-Prusoff
iNOS [5] = molecular target: T1, iNOS; experiment: biochemical
CYP3A4 = CYP3A4 (Homo sapiens (Human), UniProt P08684); experiment: CYP3A4 inhibition; format: in vitro ADME
[6] = read-out: Ki nNOS, rat nNOS, Ki from IC50 by Cheng-Prusoff
[7] = rat nNOS, Ki from IC50 by Cheng-Prusoff

eNOS (Bos taurus, UniProt P29473), sequence (P29473 2-1205 limits assumed): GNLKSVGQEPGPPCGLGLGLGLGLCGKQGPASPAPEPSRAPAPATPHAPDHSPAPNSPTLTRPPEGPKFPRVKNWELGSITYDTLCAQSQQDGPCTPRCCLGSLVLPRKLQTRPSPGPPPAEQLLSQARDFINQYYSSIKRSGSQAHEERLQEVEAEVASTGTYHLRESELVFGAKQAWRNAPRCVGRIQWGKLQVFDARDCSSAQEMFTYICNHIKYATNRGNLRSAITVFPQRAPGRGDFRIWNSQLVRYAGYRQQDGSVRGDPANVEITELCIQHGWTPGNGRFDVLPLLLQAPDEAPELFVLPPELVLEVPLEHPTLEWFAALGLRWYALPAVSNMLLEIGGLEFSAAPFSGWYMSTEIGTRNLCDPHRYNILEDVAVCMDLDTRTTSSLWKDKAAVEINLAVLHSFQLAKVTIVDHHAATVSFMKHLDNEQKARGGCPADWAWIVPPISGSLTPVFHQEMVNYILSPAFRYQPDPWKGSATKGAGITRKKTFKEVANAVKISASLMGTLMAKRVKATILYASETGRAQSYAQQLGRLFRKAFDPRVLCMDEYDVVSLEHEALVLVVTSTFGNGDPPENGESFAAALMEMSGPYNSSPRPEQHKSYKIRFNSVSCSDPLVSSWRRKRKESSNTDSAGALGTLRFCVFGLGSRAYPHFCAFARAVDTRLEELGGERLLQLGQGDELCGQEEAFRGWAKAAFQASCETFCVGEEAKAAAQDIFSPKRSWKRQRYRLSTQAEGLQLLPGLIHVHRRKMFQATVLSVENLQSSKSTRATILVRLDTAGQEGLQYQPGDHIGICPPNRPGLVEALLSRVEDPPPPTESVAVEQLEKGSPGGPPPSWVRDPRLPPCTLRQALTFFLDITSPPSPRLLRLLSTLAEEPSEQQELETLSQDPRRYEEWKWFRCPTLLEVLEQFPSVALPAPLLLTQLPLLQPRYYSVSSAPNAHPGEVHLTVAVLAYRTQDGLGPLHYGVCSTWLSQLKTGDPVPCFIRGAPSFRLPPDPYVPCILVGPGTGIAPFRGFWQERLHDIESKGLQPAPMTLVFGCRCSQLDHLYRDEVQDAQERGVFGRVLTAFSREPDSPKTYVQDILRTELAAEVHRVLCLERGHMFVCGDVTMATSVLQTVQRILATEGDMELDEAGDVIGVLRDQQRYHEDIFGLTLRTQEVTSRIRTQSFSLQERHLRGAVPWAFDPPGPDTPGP
CYP3A4, sequence (P08684 whole entry, species assumed): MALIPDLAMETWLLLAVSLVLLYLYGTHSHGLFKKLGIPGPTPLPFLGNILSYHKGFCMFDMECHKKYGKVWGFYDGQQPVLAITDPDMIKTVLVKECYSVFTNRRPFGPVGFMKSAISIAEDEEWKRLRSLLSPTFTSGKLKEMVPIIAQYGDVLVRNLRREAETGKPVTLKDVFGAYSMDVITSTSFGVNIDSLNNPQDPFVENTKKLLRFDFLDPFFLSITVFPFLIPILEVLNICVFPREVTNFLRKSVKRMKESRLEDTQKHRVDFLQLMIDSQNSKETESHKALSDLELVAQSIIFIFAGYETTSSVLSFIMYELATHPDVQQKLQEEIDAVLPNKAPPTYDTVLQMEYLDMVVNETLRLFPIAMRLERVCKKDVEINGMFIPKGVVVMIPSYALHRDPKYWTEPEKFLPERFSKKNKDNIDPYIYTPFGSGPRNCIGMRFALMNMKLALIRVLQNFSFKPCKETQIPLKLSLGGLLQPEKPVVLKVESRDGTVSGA

Structure (SMILES): Fc1cccc(CCN2CCN(c3ccnc(-n4ccnc4)n3)CC2)c1 [Compound 2]
Ki (rat nNOS; [6]): 4700 nM

Structure (SMILES): Fc1cccc(CCNCCNc2ccnc(-n3ccnc3)n2)c1 [Compound 3]
Ki nNOS (rat nNOS; [7]): moderate submicromolar | Ki (rat nNOS; [6]): 370 nM | Ki (eNOS [1]): 40000 nM | selectivity over eNOS (eNOS [2]): > 100 fold | Ratios n/e (eNOS [2]): 109 | selectivity over iNOS (iNOS [3]): 17 fold | Ki (iNOS [3]): 6400 nM | Ratios n/i (iNOS [3]): 17

Structure (SMILES): Fc1cccc(CCNCc2ccnc(-n3ccnc3)n2)c1 [Compound 4]
Ki (rat nNOS; [6]): 8700 nM

Structure (SMILES): Fc1cccc(CCCNCc2ccnc(-n3ccnc3)n2)c1 [Compound 5]
Ki (rat nNOS; [6]): 2700 nM | Ki (eNOS [1]): 90000 nM | Ratios n/e (eNOS [2]): 33 | Ki (iNOS [3]): 10500 nM | Ratios n/i (iNOS [3]): 4

Structure (SMILES): Fc1cccc(CCNCCc2ccnc(-n3ccnc3)n2)c1 [Compound 6]
Ki (eNOS [1]): 4000 nM | Ki (iNOS [3]): 1100 nM

Structure (SMILES): Fc1cccc(CCCNCCc2ccnc(-n3ccnc3)n2)c1 [Compound 7]
membrane / cellular permeability (caco-2): good cellular permeability; also recorded: has membrane permeability | inhibition of other CNS targets [4]: minimal inhibition for most of them | Ki (rat nNOS; [6]): 19 nM | Ki (eNOS [1]): 4950 nM | Ki (iNOS [3]): 770 nM | Ki (human nNOS): 193 nM

Structure (SMILES): Clc1cccc(CCCNCCc2ccnc(-n3ccnc3)n2)c1 [Compound 25]
Ki (rat nNOS; [6]): 32 nM | Ki (eNOS [1]): 8100 nM | Ratios n/e (eNOS [2]): 253 | Ratios n/i (iNOS [3]): 28 | Ki (human nNOS): 125 nM | Ki (iNOS [5]): 2000 nM

Structure (SMILES): Fc1cccc(C2CC2CNCCc2ccnc(-n3ccnc3)n2)c1 (centres unmarked) [Compound 26]
Ki (rat nNOS; [6]): 56 nM | Ki (eNOS [1]): 4000 nM | Ratios n/e (eNOS [2]): 71 | Ki (iNOS [3]): 1900 nM | Ratios n/i (iNOS [3]): 34 | Ki (human nNOS): 359 nM

Structure (SMILES): Fc1cccc(CC2CC2NCCc2ccnc(-n3ccnc3)n2)c1 (centres unmarked) [Compound 27]
Ki (rat nNOS; [6]): 40 nM | Ki (eNOS [1]): 14500 nM | Ki (human nNOS): 358 nM

Structure (SMILES): N#Cc1cccc(CNCCc2ccnc(-n3ccnc3)n2)c1 [Compound 28]
Ki (rat nNOS; [6]): 183 nM | Ki (eNOS [1]): 10500 nM | Ki (iNOS [3]): 3400 nM | Ki (human nNOS): 138 nM

Structure (SMILES): c1cncc(CCCNCCc2ccnc(-n3ccnc3)n2)c1 [Compound 29]
Ki nNOS (rat nNOS; [7]): good potency | Ki (rat nNOS; [6]): 54 nM | Ki (eNOS [1]): 10900 nM | Ki hnNOS (human nNOS; Ki from IC50 by Cheng-Prusoff): good potency | Ki (human nNOS): 125 nM

Structure (SMILES): Fc1cccc(CCCNCCc2ccnc(-n3ccnn3)n2)c1 [Compound 30]
Ki (rat nNOS; [6]): 60000 nM

IC50 (CYP3A4): 15000 nM | Ki (rat nNOS; [6]): 667 nM | Ki (rat nNOS; read-out: potency for nNOS): 667 nM | Ratios n/i (iNOS [3]): 430 | Ki (human nNOS): 4490 nM | Ki (iNOS [5]): 287000 nM
Structure (SMILES): Cc1cn(-c2nccc(CCNCCCc3cccc(F)c3)n2)cn1 [Compound 31]
Ratios n/e (eNOS [2]): 256

Structure (SMILES): Fc1cccc(CCNCCc2cncc(-n3ccnc3)c2)c1 [Compound 48]
Ki (rat nNOS; [6]): 5500 nM
